Molecular target: T1, histamine-3 receptor (Rattus norvegicus, UniProt Q9QYN8)
T1 construct: from tissue; host or cells: male Sprague-Dawley rat brain cortex membranes
Experiment: Histamine-3 receptor binding, (3H)-N-α-methylhistamine displacement in rat cortical membranes
Conditions: male Sprague-Dawley rat brain cortical membranes; (3H)-N-α-methylhistamine ~0.6 nM; 30 minutes at 25° C.; Cheng-Prusoff
Protocol: Briefly, male Sprague-Dawley rat brain cortices were homogenized (1 g tissue/10 mL buffer) in 50 mM Tris-HCl/5 mM EDTA containing protease inhibitor cocktail (Calbiochem) using a polytron set at 20,500 rpm. Homogenates were centrifuged for 20 minutes at 40,000×g. The supernatant was decanted, and pellets were weighed. The pellet was resuspended by polytron homogenization in 40 mL 50 mM Tris-HCl/5 mM EDTA with protease inhibitors and centrifuged for 20 minutes at 40,000×g. […] Test compounds were dissolved in DMSO to provide 20 mM solution, serially diluted and then added to the incubation mixtures prior to initiating the incubation assay by addition of the membranes. Thioperamide (3 μM) was used to determine nonspecific binding. Binding incubations were conducted for 30 minutes at 25° C. and terminated by addition of 2 mL of ice cold 50 mM Tris-HCl (pH 7.7) and filtration through 0.3% polyethylenimine-soaked Unifilter plates (Packard). These filters were washed 4 additional times with 2 mL of ice-cold 50 mM Tris-HCl and dried for 1 hour. Radioactivity was determined using liquid scintillation counting techniques. Results were analyzed by Hill transformation and Ki values were determined using the Cheng-Prusoff equation.

T1 sequence (Q9QYN8 whole entry): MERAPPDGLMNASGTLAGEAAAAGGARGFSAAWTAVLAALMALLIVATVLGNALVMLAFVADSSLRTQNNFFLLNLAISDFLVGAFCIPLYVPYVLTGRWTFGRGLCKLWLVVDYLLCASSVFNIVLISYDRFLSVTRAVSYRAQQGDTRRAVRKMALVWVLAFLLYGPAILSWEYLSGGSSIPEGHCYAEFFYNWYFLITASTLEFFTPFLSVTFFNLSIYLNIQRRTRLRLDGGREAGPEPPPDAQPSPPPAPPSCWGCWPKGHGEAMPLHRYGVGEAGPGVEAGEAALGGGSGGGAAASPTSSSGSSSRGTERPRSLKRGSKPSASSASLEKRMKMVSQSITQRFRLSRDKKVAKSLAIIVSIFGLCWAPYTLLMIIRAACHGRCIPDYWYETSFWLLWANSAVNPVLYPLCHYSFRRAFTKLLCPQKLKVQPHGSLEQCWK

Compound	Ki
N#Cc1ccc(-c2ccc(OCCCN3CC[C@@H](NS(=O)(=O)c4ccc(OC(F)(F)F)cc4)C3)cc2)cc1 [Example 50]	60 nM
CN([C@@H]1CCN(CCCOc2ccc(-c3ccc(C#N)cc3)cc2)C1)S(=O)(=O)c1ccc(C#N)cc1 [Example 126, 4-cyano-N-((3R)-1-{3-[(4′-cyano[1,1′-biphenyl]-4-yl)oxy]propyl}pyrrolidinyl)-N-methylbenzenesulfonamide]	4.6 nM
CC(C)(C)OC(=O)N[C@H]1CCN(CCOc2ccc(-c3ccc(C#N)cc3)cc2)C1 [Example 100, tert-butyl (3S)-1-{2-[(4′-cyano[1,1′-biphenyl]-4-yl)oxy]ethyl}pyrrolidinylcarbamate]	1630 nM
N-((3R)-1-{3-[4-(cyclopropylcarbonyl)phenoxy]propyl}pyrrolidinyl)-4-isopropylbenzenesulfonamide [Example 67]	2.9 nM
COc1ccc(S(=O)(=O)N[C@@H]2CCN(CCCOc3ccc(-c4ccc(C#N)cc4)cc3)C2)cc1OC [Example 42]	8.8 nM
CN(C(=O)NC(C)(C)C)[C@@H]1CCN(CCCOc2ccc(-c3ccc(C#N)cc3)cc2)C1 [Example 117, N′-tert-butyl-N-((3R)-1-{3-[(4′-cyano[1,1′-biphenyl]-4-yl)oxy]propyl}pyrrolidinyl)-N-methylurea]	45 nM
CC(=O)c1ccc(OCCCN2CC[C@@H](NS(=O)(=O)c3cccn3-c3ncc(C(F)(F)F)cc3Cl)C2)cc1 [Example 78, N-{(3R)-1-[3-(4-acetylphenoxy)propyl]pyrrolidinyl}-1-[3-chloro-5-(trifluoromethyl)-2-pyridinyl]-1H-pyrrole-2-sulfonamide]	8.7 nM
N#Cc1ccc(-c2ccc(OCCCN3CC[C@@H](NS(=O)(=O)c4cccs4)C3)cc2)cc1 [Example 36]	12 nM
CN(C)[C@@H]1CCN(CCCOc2c(F)cc(-c3ccc(C#N)cc3)cc2F)C1 [Example 172, 4′-{3-[(3R)-3-(dimethylamino)-1-pyrrolidinyl]propoxy}-3′,5′-difluoro-1,1′-biphenyl-4-carbonitrile]	13 nM
N#Cc1ccc(-c2ccc(OCCCN3CC[C@@H](NS(=O)(=O)c4ccccc4F)C3)cc2)cc1 [Example 29]	5.9 nM
CN(C)[C@@H]1CCN(CCCOc2ccc(-c3ccc(C#N)cc3)cc2Cl)C1 [Example 171, 3′-chloro-4′-{3-[(3R)-3-(dimethylamino)-1-pyrrolidinyl]propoxy}-1,1′-biphenyl-4-carbonitrile]	41 nM
Cc1ccc(S(=O)(=O)N[C@@H]2CCN(CCCOc3ccc(-c4ccc(C#N)cc4)cc3)C2)cc1 [Example 22]	12 nM
N#Cc1ccc(-c2ccc(OCCCN3CC[C@@H](NC(=O)c4cccnc4)C3)cc2)cc1 [Example 141]	342 nM
O=C(c1ccc(OCCCN2CC[C@@H](NS(=O)(=O)c3ccc(C(F)(F)F)cc3)C2)cc1)C1CC1 [Example 92, N-((3R)-1-{3-[4-(cyclopropylcarbonyl)phenoxy]propyl}pyrrolidinyl)-4-(trifluoromethyl)benzenesulfonamide]	4.9 nM
N#Cc1ccc(-c2ccc(OCCCN3CC[C@@H](NS(=O)(=O)c4cccc(Cl)c4)C3)cc2)cc1 [Example 31, 3-chloro-N-((3R)-1-{3-[(4′-cyano[1,1′-biphenyl]-4-yl)oxy]propyl}pyrrolidinyl)benzenesulfonamide]	30 nM
CN(C)S(=O)(=O)N[C@@H]1CCN(CCCOc2ccc(-c3ccc(C#N)cc3)cc2)C1 [Example 145]	9.6 nM
COC(=O)N(C)[C@@H]1CCN(CCCOc2ccc(-c3ccc(C#N)cc3)cc2)C1 [Example 113, methyl (3R)-1-{3-[(4′-cyano[1,1′-biphenyl]-4-yl)oxy]propyl}pyrrolidinyl(methyl)carbamate]	13 nM
CC(=O)c1ccc(OCCCN2CC[C@@H](NS(=O)(=O)C(C)C)C2)cc1 [Example 6, N-{(3R)-1-[3-(4-acetylphenoxy)propyl]pyrrolidinyl}-2-propanesulfonamide]	95 nM
O=C(c1ccc(OCCCN2CC[C@@H](NS(=O)(=O)c3cccc(Cl)c3)C2)cc1)C1CC1 [Example 70, 3-chloro-N-((3R)-1-{3-[4-(cyclopropylcarbonyl)phenoxy]propyl}pyrrolidinyl)benzenesulfonamide]	3 nM
O=C(c1ccc(OCCCN2CC[C@@H](NS(=O)(=O)c3ccc(Br)cc3)C2)cc1)C1CC1 [Example 56, 4-bromo-N-((3R)-1-{3-[4-(cyclopropylcarbonyl)phenoxy]propyl}pyrrolidinyl)benzenesulfonamide]	4.7 nM

Compound	Ki
CC(=O)N[C@@H]1CCN(CCCOc2ccc(-c3ccc(C#N)cc3)cc2)C1 [Example 130]	31 nM
CN([C@@H]1CCN(CCCOc2ccc(-c3ccc(C#N)cc3)cc2)C1)S(=O)(=O)c1cccc(F)c1 [Example 125]	7.4 nM
O=C(c1ccc(OCCCN2CC[C@@H](NS(=O)(=O)c3cc(C(F)(F)F)cc(C(F)(F)F)c3)C2)cc1)C1CC1 [Example 83, N-((3R)-1-{3-[4-(cyclopropylcarbonyl)phenoxy]propyl}pyrrolidinyl)-3,5-bis(trifluoromethyl)benzenesulfonamide]	23 nM
CCCCOc1ccc(S(=O)(=O)N[C@@H]2CCN(CCCOc3ccc(-c4ccc(C#N)cc4)cc3)C2)cc1 [Example 41, 4-butoxy-N-((3R)-1-{3-[(4′-cyano[1,1′-biphenyl]-4-yl)oxy]propyl}pyrrolidinyl)benzenesulfonamide]	48 nM
CC(C)S(=O)(=O)N[C@@H]1CCN(CCCOc2ccc(C(=O)C3CC3)cc2)C1 [Example 12, N-((3R)-1-{3-[4-(cyclopropylcarbonyl)phenoxy]propyl}pyrrolidinyl)-2-propanesulfonamide]	71 nM
N-{(3R)-1-[3-(4-acetylphenoxy)propyl]pyrrolidinyl}-4-(trifluoromethoxy)benzenesulfonamide [Example 73]	6.4 nM
CN(C(=O)N1CCCC1)[C@@H]1CCN(CCCOc2ccc(-c3ccc(C#N)cc3)cc2)C1 [Example 116]	14 nM
CN(C)[C@@H]1CCN(CCCOc2ccc(-c3ccc(C#N)c(F)c3)cc2)C1 [Example 166, 4′-{3-[(3R)-3-(dimethylamino)-1-pyrrolidinyl}propoxy]-3-fluoro-1,1′-biphenyl-4-carbonitrile]	73 nM
CC(=O)c1ccc(OCCCN2CC[C@@H](NS(=O)(=O)c3ccc(C#N)cc3)C2)cc1 [Example 5, N-{(3R)-1-[3-(4-acetylphenoxy)propyl]pyrrolidinyl}-4-cyanobenzenesulfonamide]	6.3 nM
CC(=O)c1ccc(OCCCN2CC[C@@H](N3C(=O)N[C@H](C(C)C)C3=O)C2)cc1 [Example 10, (5R)-3-{(3R)-1-[3-(4-acetylphenoxy)propyl]pyrrolidinyl}-5-isopropyl-2,4-imidazolidinedione]	626 nM
O=C(c1ccc(OCCCN2CC[C@@H](NS(=O)(=O)c3cccc(F)c3)C2)cc1)C1CC1 [Example 93, N-((3R)-1-{3-[4-(cyclopropylcarbonyl)phenoxy]propyl}pyrrolidinyl)-3-fluorobenzenesulfonamide]	3.2 nM
N#Cc1ccc(-c2ccc(OCCCN3CC[C@@H](NS(=O)(=O)c4ccc(Cl)cc4)C3)cc2)cc1 [Example 18, 4-chloro-N-((3R)-1-{3-[(4′-cyano[1,1′-biphenyl]-4-yl)oxy]propyl}pyrrolidinyl)benzenesulfonamide]	29 nM
N#Cc1ccc(S(=O)(=O)N[C@@H]2CCN(CCCOc3ccc(-c4ccccn4)cc3)C2)cc1 [Example 103, 4-cyano-N-((3R)-1-{3-[4-(2-pyridinyl)phenoxy]propyl}pyrrolidinyl)benzenesulfonamide]	195 nM
COc1ccc(S(=O)(=O)N[C@@H]2CCN(CCCOc3ccc(C(=O)C4CC4)cc3)C2)cc1OC [Example 86, N-((3R)-1-{3-[4-(cyclopropylcarbonyl)phenoxy]propyl}pyrrolidinyl)-3,4-dimethoxybenzenesulfonamide]	1.8 nM
N#Cc1ccc(-c2ccc(OCCCN3CC[C@@H](NS(=O)(=O)c4ccc(Br)cc4)C3)cc2)cc1 [Example 16, 4-bromo-N-((3R)-1-{3-[(4′-cyano[1,1′-biphenyl]-4-yl)oxy]propyl}pyrrolidinyl)benzenesulfonamide]	67 nM
O=C(c1ccc(OCCCN2CC[C@@H](NS(=O)(=O)c3ccccc3F)C2)cc1)C1CC1 [Example 68, N-((3R)-1-{3-[4-(cyclopropylcarbonyl)phenoxy]propyl}pyrrolidinyl)-2-fluorobenzenesulfonamide]	2.8 nM
CC(=O)c1ccc(OCCCN2CC[C@@H](N3C(=O)N[C@@H](C)C3=O)C2)cc1 [Example 9, (5S)-3-{(3R)-1-[3-(4-acetylphenoxy)propyl]pyrrolidinyl}-5-methyl-2,4-imidazolidinedione]	675 nM
CN(C(=O)c1ccco1)[C@@H]1CCN(CCCOc2ccc(-c3ccc(C#N)cc3)cc2)C1 [Example 122]	20 nM
CC(=O)c1ccc(OCCCN2CC[C@@H](NS(=O)(=O)c3ccc(F)cc3F)C2)cc1 [Example 74, N-{(3R)-1-[3-(4-acetylphenoxy)propyl]pyrrolidinyl}-2,4-difluorobenzenesulfonamide]	5.6 nM
CC(=O)c1ccc(OCCCN2CC[C@@H](NC(=O)CSc3nccc(C)n3)C2)cc1 [Example 2, N-{(3R)-1-[3-(4-acetylphenoxy)propyl]pyrrolidinyl}-2-[(4-methyl-2-pyrimidinyl)sulfanyl]acetamide]	68 nM

Source: US6620839B2, “1,3-disubstituted and 1,3,3-trisubstituted pyrrolidines as histamine-3 receptor ligands and their therapeutic applications” (Abbott Laboratories, priority 2000, dated 2003)
